According to patent publication US9061984B2 (University of Louisville Research Foundation, Inc., priority 2008, dated 2015):
pIC50: −log10 of the molar value. Values after ≈ are worked out from the molar mass of the structure shown. Values joined by “and” are separate entries in the source; they are usually repeats but may differ in a detail not shown here. Equal entries are not always repeated. Where two headings read alike, the source gives them in different places.

Assays:
DU145 cells = assay: Cell growth inhibition bioassay (sulforhodamine B); type: cell-based, human; settings: 48 h, SRB; for GI50: Homo sapiens, DU-145, read-out: GI50 in indicated cell line: DU145
In short: (§1)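 Human cancer cells (MCF-7 breast, DU145 and PC3 prostate, H460 large cell lung) were treated with compounds. Growth relative to solvent control was quantified by SRB protein stain.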

H460 cells = assay: Cell growth inhibition bioassay (sulforhodamine B); type: cell-based, human; settings: 48 h, SRB; for GI50: Homo sapiens, NCI-H460, read-out: GI50 in indicated cell line: H460
In short: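 Growth inhibition was measured colorimetrically with sulforhodamine B staining and expressed as percent inhibition relative to solvent-treated controls. Cell lines were human: MCF-7 breast adenocarcinoma, DU145 and PC3 prostate carcinoma/adenocarcinoma, H460 large cell lung cancer.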

K562 cells = assay: Cell growth inhibition bioassay (sulforhodamine B); type: cell-based, human; settings: 48 h, SRB; for GI50: Homo sapiens, K562, read-out: GI50 in indicated cell line: K562
In short: (§2)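 Cells were exposed to compound alongside matched solvent controls, then stained with sulforhodamine B. Percent growth inhibition was calculated from dye absorbance against the control.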

M-14 cells = assay: Cell growth inhibition bioassay (sulforhodamine B); type: cell-based, human; settings: 48 h, SRB; for GI50: Homo sapiens, M14, read-out: GI50 in indicated cell line: M-14
In short: as §2

HT-29 cells = assay: Cell growth inhibition bioassay (sulforhodamine B); type: cell-based, human; settings: 48 h, SRB; for GI50: Homo sapiens, HT-29, read-out: GI50 in indicated cell line: HT-29
In short: as §2

MCF-7 cells = assay: Cell growth inhibition bioassay (sulforhodamine B); type: cell-based, human; settings: 48 h, SRB; for GI50: Homo sapiens, MCF7, read-out: GI50 in indicated cell line: MCF-7
In short: as §1

[1] = test system: Trypanosoma cruzi (Tulahuen C4); assay: In vitro anti-T. cruzi activity (β-galactosidase CPRG colorimetric assay in VERO monolayer); type: cell-based; settings: for pIC50: Table 3, read-out: IC50 T. cruzi
3T3 cells = assay: Cell growth inhibition bioassay (sulforhodamine B); type: cell-based, mouse; settings: for GI50: Mus musculus, NIH3T3, read-out: GI50 in indicated cell line: 3T3
In short: as §2

PC3 cells = assay: Cell growth inhibition bioassay (sulforhodamine B); type: cell-based; settings: Homo sapiens, PC-3; 48 h, SRB; read-out: GI50 in indicated cell line: PC3
Procedure: The cytotoxicity of compounds was assayed as follows. […] Appropriate solvent controls were tested for comparison. The percent inhibition of cell growth relative to the control was evaluated colorimetrically using a sulforhodamine B dye by comparison to the control. The calorimetric procedure followed that published in Skehan et al., J. Nat. Cancer Inst., […], pp. 1107-1112 (1990) and Boyd & Paull, Drug Dev. Res., Vol. 34, pp. 91-109 (1995). […] The cell lines are: 3T3 cells are BALB/3T3 clone A31 embryonic mouse fibroblast cells; H460 cells are human large cell lung cancer cells; DU145 cells are human prostate carcinoma cells; MCF-7 cells are human breast adenocarcinoma cells; M-14 cells are human melanoma cells; HT-29 cells are human colon adenocarcinoma cells; PC3 cells are human prostate adenocarcinoma cells; K562 cells are human chronic myelogenous leukemia cells; and VERO cells are African Green Monkey kidney epithelial cells.

[2] = test system: non-replicating persistence Mycobacterium tuberculosis (NRP-TB); assay: Low oxygen recovery assay (LORA); type: cell-based; settings: anaerobic 10 days, 28 hour recovery; value in brackets
VERO cells [3] = assay: Cytotoxicity on VERO cells (MTT), anti-T. cruzi study; settings: Lab B
[4] = test system: axenic amastigotes of L. amazonensis (strain MHOM/BR/76/LTB-012); settings: read-out: L. amazonensis IC50; Table 8b
M. tuberculosis H37Rv = assay: Conventional aerobic (MABA) culture assay, luminescence MIC; type: cell-based, Mycobacterium tuberculosis; settings: aerobic, 7 days, H37Rv
VERO cells [5] = assay: Cell growth inhibition bioassay (sulforhodamine B); type: cell-based, African Green Monkey; settings: 48 h, SRB
In short: as §2

VERO cell = assay: Cytotoxicity VERO cell (Table 6); settings: Table 6
peritoneal macrophages = assay: Toxicity to peritoneal macrophages (Trypan Blue count); type: cell-based, BALB/C mouse
[6] = Trypanosoma cruzi, TULAHUEN, Vero
[7] = 10 μg/mL of each compound, 120 hours

Compound | melting point [°C] | GI50 (DU145 cells) [µM] | GI50 (H460 cells) [µM] | GI50 (K562 cells) [µM] | GI50 (M-14 cells) [µM] | GI50 (HT-29 cells) [µM] | GI50 (MCF-7 cells) [µM] | pIC50 [1, 6] | GI50 (3T3 cells; 48 h, SRB) [µM] | GI50 (PC3 cells) [µM] | T. cruzi Inhib. (%) [1, 7] | GI50 in indicated cell line: DU145 (DU145 cells) [µg/mL] | GI50 in indicated cell line: H460 (H460 cells) [µg/mL] | GI50 in indicated cell line: K562 (K562 cells) [µg/mL] | GI50 in indicated cell line: M-14 (M-14 cells) [µg/mL] | GI50 in indicated cell line: HT-29 (HT-29 cells) [µg/mL] | GI50 in indicated cell line: MCF-7 (MCF-7 cells) [µg/mL] | Cytotoxicity VERO Lab B (VERO cells [3]) | T. cruzi IC50 Lab A [1] [µg/mL] | T. cruzi IC50 Lab B [1] [µg/mL] | also measured
COc1ccc(CCC(=O)c2c(O)cc(OC)cc2OC)cc1 [Compound I-03, 1-(2-Hydroxy-4,6-dimethoxyphenyl)-3-(4-methoxyphenyl)-1-propanone] | 107 | > 197 | > 197 | > 197 | > 197 | > 197 | > 197 | < 4.00 | > 197 | > 197 | – | – | – | – | – | – | – | – | – | – | –
COc1cc(O)c(C(=O)CCc2ccc3c(c2)OCO3)c(OC)c1 [Compound I-04, 3-(1,3-Benzodioxol-5-yl)-1-(2-hydroxy-4,6-dimethoxyphenyl)-1-propanone] | 125 | 60.2 | 105 | 28.2 | 82 | 145 | 42.4 | < 4.00 | 21.5 | 39.1 | 12.96% and 3.24% | – | – | – | – | – | – | – | – | – | –
COc1ccc(CCC(=O)c2c(O)cc(O)cc2OC)cc1 [Compound I-07, 1-(2,4-Dihydroxy-6-methoxyphenyl)-3-(4-methoxyphenyl)-1-propanone] | 166 | > 206 | 128 | 22.8 | 109 | > 206 | 65.5 | < 4.60 | > 206 | 59.9 | 27.74% | – | – | – | – | – | – | – | – | – | inhibition at 10 µg/mL ([1]; Trypanosoma cruzi, TULAHUEN, Vero, 120 h, 10 μg/mL of each compound, 120 hours, read-out: T. cruzi Inhib. (%)): 20.5%
FC(F)(F)c1ccccc1C=NNc1ncnc2sc3c(c12)CCCC3 [II-25] | – | – | – | – | – | – | – | – | – | – | – | 1.3 (≈ 3.45 µM) | 2.0 (≈ 5.31 µM) | 0.6 (≈ 1.59 µM) | 2.5 (≈ 6.64 µM) | 1.7 (≈ 4.52 µM) | 1.8 (≈ 4.78 µM) | 3.0 | 0.5 | 5.2 | MIC LORA [2]: 5.8 µg/mL (≈ 15.4 µM); GI50 in indicated cell line: 3T3 (3T3 cells; 48 h, SRB): 6.0 µg/mL (≈ 15.9 µM); pIC50 [4]: 6.40; MIC MABA (M. tuberculosis H37Rv): 5.9 µg/mL (≈ 15.7 µM); GI50 in indicated cell line: VERO (VERO cells [5]): 1.7 µg/mL (≈ 4.52 µM); Cytotoxicity VERO cell (VERO cell): 7.6 µg/mL; pIC50 (peritoneal macrophages): 5.92
NNc1ncnc2sc3c(c12)CCCC3 [PC] | – | – | – | – | – | – | – | – | – | – | – | 3.1 (≈ 14.1 µM) | 2.1 (≈ 9.53 µM) | 2.4 (≈ 10.9 µM) | 5.4 (≈ 24.5 µM) | 4.6 (≈ 20.9 µM) | 2.0 (≈ 9.08 µM) | 9.0 | 4.1 | 4.7 | GI50 in indicated cell line: 3T3 (3T3 cells): <0.98 µg/mL; pIC50 [4]: 4.92; MIC MABA (M. tuberculosis H37Rv): 82.5 µg/mL (≈ 374 µM); GI50 in indicated cell line: VERO (VERO cells [5]): 2.5 µg/mL (≈ 11.3 µM); Cytotoxicity VERO cell (VERO cell): 26.9 µg/mL; pIC50 (peritoneal macrophages; Table 8b, read-out: Cytotoxicity Macrophages IC50): 5.13
